Source: patent publication US10561736B1, “Apoptosis inhibitor formulations for prevention of hearing loss” (Spiral Therapeutics, Inc., priority 2019, dated 2020)

Experiments:
[1] = tested on: A549 cells; assay: proliferation of non-apoptotic A549 cells; assay type: cell-based; details: A549 cells cultured with LPT99 up to 6 days; reversible on removal
Experimental: The effect of LPT99 on proliferation of non-apoptotic cells was studied. A549 cells were cultured in the presence of LPT99 for up to 6 days; the cell number was monitored by flow cytometry, and doubling time was calculated.

[2] = distribution in cochlea and plasma after a single IT administration; assay type: in vivo; details: rat
Experimental: Distribution of LPT99 was investigated in cochlea and plasma after a single IT administration in rats. The inhibitor was administered at 50, 100, or 200 μM (dissolved in 5% hydroxypropyl cyclodextrin in physiological serum).

[3] = tested on: guinea pigs; assay: dermal sensitization main study (Buehler test); assay type: in vivo, guinea pig; details: topical 797 μM
Experimental: A GLP-compliant dermal sensitization study was conducted with LPT99 in guinea pigs.
The test article, LPT99, was in a neutral-pH, buffered, isotonic solution containing a thermoreversible compound.
The main study consisted of 2 groups of 20 or 10 guinea pigs. […] Group 2 was 5 male and 5 female animals that were not dosed with LPT99 (Group 2) during the induction phase and served as naïve controls; Group 2 was challenged with LPT99 on Day 28. LPT99 was topically administered to the skin in the shaved scapula area in a volume of 50 μL on Study Days 0, 7, and 14 (induction doses), and on Day 28 (challenge dose). These observations and measurements were performed: Clinical observations (daily), Body weights (weekly), Draize scoring (24 and 48 hours after bandage removal on Days 29 and 30), Primary Dermal Irritation Index (PDII) scoring of extent of irritation according to the scale in. The PDII (post-challenge) was calculated for the test article or vehicle by dividing the sum of the Total Irritation Score by the number of observations (e.g., 3 days×6 animals=18 (number of observations).

[4] = tested on: HEI-OC1 cells; details: cellular model of CisPt-induced apoptosis; IEB Symposium abstracts 2016; cited from earlier work
[5] = biological target: vasopressin (ViA) (Homo sapiens, UniProt P37288); assay: off-target selectivity panel; assay type: binding
Experimental: (§1) To identify off-target activities of LPT99, its selectivity against a panel of receptors (44 G-protein-coupled receptors [GPCR] and 4 non-GPCR), 4 ion channels, and 3 transporters were analyzed. The cell line, HEI-OC1 (house ear institute organ of Corti 1), which expresses several characteristic markers of the organ of Corti sensory cells (Kalinec, et al., Audiol. Neurootol. 2003, 8(4), 177-89), was used to evaluate the efficacy of LPT99 in preventing apoptosis due to […]. Cells were pre-incubated with LPT99, followed by […] for 24 hours.
(§2) For 14 of the tested targets-adenosine receptor 3 (A3); cholecystokinin: cholecystokinin receptor 1 (CCK1); melatonin receptor (MT1); neurokinin (NK2 and NK3); opioid (kOP and mOP); serotonin receptors (5HT-1A, 5HT-2A, 5HT-2B and 5HT-7); and vasopressin (ViA; Na+channel site 2 and C1-GABA-gated channel)—the LPT99 affinity was >50%. At 1 μM, the inhibition of 13 of these targets was <50%, indicating a very low affinity with LPT99.

[6] = biological target: adenosine receptor 3 (A3) (Homo sapiens, UniProt P0DMS8); assay: off-target selectivity panel; assay type: binding
Experimental: as §1, §2

[7] = tested on: panel of receptors (44 GPCR and 4 non-GPCR), 4 ion channels, and 3 transporters; assay: off-target selectivity panel; assay type: binding; details: 10 μM
Experimental: as §1, §2

[8] = biological target: serotonin receptor 5HT-7 (Homo sapiens, UniProt P34969); assay: off-target selectivity panel; assay type: binding
Experimental: as §1, §2

[9] = biological target: opioid (kOP) (Homo sapiens, UniProt P41145); assay: off-target selectivity panel; assay type: binding
Experimental: as §1, §2

[10] = biological target: opioid (mOP) (Homo sapiens, UniProt P35372); assay: off-target selectivity panel; assay type: binding
Experimental: as §1, §2

[11] = biological target: cholecystokinin receptor 1 (CCK1) (Homo sapiens, UniProt P32238); assay: off-target selectivity panel; assay type: binding
Experimental: as §1, §2

[12] = biological target: neurokinin (NK3) (Homo sapiens, UniProt P29371); assay: off-target selectivity panel; assay type: binding
Experimental: as §1, §2

[13] = tested on: C1-GABA-gated channel; assay: off-target selectivity panel; assay type: binding
Experimental: as §1, §2

[14] = biological target: neurokinin (NK2) (Homo sapiens, UniProt P21452); assay: off-target selectivity panel; assay type: binding
Experimental: as §1, §2

[15] = biological target: serotonin receptor 5HT-1A (Homo sapiens, UniProt P08908); assay: off-target selectivity panel; assay type: binding
Experimental: as §1, §2

[16] = tested on: Na+channel site 2; assay: off-target selectivity panel; assay type: binding
Experimental: as §1, §2

[17] = biological target: serotonin receptor 5HT-2A (Homo sapiens, UniProt P28223); assay: off-target selectivity panel; assay type: binding
Experimental: as §1, §2

[18] = biological target: serotonin receptor 5HT-2B (Homo sapiens, UniProt P41595); assay: off-target selectivity panel; assay type: binding
Experimental: as §1, §2

[19] = biological target: melatonin receptor (MT1) (Homo sapiens, UniProt P48039); assay: off-target selectivity panel; assay type: binding
Experimental: as §1, §2

[20] = tested on: BALB/c 3T3 mouse fibroblasts; assay: in vitro phototoxicity; assay type: cell-based; details: ≤100 μM
Experimental: An in vitro experiment was performed in BALB/c 3T3 mouse fibroblasts to determine the phototoxic potential of LPT99 at concentrations of ≤100 μM in 3T3 L1 cells.

[21] = tested on: bacterial reverse mutation; assay: GLP in vitro bacterial reverse mutation assay (Ames test); assay type: cell-based

melatonin receptor (MT1), sequence (P48039 whole entry): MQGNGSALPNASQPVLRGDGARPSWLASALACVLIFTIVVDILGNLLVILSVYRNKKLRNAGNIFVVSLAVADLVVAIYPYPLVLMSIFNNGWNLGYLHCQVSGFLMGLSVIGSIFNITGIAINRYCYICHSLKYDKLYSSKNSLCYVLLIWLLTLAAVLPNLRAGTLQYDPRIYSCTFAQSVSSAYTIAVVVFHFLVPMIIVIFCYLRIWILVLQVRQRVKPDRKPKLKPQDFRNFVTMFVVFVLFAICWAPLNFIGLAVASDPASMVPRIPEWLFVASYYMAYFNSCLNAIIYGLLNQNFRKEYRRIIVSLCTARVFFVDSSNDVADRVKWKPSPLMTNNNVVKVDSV
serotonin receptor 5HT-2A, sequence (P28223 whole entry): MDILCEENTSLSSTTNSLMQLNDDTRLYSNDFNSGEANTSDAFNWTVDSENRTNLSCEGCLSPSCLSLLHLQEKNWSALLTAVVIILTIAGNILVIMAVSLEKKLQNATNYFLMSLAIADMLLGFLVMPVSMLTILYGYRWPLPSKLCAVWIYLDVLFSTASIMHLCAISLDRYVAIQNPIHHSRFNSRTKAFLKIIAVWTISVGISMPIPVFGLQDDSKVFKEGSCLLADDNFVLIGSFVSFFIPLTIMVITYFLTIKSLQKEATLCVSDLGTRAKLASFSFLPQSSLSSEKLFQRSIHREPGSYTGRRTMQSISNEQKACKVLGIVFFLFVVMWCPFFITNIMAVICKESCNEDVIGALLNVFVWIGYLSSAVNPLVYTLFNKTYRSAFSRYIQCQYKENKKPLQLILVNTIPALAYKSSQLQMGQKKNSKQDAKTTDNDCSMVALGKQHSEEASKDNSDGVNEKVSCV
vasopressin (ViA), sequence (P37288 whole entry): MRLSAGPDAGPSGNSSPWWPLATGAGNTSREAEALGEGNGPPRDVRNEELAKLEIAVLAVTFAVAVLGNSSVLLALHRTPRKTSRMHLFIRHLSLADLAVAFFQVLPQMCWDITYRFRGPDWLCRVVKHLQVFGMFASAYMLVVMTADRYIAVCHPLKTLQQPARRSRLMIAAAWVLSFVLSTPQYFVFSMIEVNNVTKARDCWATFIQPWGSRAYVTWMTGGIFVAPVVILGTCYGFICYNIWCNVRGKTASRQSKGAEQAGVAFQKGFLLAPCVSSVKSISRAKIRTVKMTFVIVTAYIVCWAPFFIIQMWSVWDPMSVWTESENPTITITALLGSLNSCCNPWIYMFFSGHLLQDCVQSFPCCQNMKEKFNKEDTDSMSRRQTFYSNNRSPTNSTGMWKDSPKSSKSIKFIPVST
opioid (kOP), sequence (P41145 whole entry): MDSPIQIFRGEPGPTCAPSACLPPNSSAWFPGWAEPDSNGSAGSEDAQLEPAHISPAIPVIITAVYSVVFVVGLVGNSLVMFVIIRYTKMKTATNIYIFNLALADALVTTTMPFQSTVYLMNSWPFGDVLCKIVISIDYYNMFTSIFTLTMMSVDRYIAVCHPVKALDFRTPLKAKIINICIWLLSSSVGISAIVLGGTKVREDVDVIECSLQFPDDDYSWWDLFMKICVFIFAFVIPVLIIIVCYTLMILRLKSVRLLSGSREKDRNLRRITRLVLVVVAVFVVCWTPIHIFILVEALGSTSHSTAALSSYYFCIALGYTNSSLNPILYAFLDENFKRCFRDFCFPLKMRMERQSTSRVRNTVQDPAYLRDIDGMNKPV
serotonin receptor 5HT-7, sequence (P34969 whole entry): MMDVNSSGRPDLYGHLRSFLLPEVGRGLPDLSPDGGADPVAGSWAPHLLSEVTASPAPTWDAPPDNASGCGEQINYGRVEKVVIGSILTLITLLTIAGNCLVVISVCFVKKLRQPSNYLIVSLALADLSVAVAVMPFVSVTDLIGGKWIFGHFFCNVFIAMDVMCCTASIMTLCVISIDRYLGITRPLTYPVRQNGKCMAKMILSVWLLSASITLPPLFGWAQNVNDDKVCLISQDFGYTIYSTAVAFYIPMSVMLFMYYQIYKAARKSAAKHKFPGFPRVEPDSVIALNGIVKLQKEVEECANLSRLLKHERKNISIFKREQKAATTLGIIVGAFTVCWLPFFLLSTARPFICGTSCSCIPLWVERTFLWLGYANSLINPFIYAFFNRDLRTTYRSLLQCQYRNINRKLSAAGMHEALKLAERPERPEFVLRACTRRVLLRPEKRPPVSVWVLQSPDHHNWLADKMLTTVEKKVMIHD
neurokinin (NK2), sequence (P21452 whole entry): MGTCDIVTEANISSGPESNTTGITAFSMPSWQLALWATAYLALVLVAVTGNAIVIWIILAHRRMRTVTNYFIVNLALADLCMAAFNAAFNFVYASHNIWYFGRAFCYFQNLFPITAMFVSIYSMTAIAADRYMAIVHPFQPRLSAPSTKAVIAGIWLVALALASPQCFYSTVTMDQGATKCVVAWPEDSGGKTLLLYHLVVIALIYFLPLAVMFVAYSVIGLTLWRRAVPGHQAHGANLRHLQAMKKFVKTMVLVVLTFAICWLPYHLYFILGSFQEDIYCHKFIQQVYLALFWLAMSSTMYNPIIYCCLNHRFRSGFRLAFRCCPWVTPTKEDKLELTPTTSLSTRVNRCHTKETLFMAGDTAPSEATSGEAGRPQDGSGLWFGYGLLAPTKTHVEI
opioid (mOP), sequence (P35372 whole entry): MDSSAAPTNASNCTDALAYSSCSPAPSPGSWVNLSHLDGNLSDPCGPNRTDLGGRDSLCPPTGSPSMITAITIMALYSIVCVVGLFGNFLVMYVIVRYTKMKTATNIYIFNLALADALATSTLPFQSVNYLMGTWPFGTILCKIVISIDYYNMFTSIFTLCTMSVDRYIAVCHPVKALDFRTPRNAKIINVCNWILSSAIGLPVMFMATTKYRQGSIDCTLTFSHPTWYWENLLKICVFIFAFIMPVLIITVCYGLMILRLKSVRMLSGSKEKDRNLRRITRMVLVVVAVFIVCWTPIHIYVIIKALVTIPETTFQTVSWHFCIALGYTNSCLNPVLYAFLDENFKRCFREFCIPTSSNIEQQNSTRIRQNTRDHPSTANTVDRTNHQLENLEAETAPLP
neurokinin (NK3), sequence (P29371 whole entry): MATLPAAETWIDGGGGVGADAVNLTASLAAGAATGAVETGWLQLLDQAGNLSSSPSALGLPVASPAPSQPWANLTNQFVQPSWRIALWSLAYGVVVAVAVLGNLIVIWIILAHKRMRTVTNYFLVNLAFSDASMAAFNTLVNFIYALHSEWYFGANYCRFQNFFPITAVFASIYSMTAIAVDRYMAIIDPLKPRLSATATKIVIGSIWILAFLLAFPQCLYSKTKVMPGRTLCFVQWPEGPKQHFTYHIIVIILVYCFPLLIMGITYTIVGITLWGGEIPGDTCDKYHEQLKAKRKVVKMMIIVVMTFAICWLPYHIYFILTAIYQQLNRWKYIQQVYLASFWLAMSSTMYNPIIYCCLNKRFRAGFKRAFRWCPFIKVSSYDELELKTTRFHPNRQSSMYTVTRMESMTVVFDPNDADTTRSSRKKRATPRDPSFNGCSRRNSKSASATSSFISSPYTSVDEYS
cholecystokinin receptor 1 (CCK1), sequence (P32238 whole entry): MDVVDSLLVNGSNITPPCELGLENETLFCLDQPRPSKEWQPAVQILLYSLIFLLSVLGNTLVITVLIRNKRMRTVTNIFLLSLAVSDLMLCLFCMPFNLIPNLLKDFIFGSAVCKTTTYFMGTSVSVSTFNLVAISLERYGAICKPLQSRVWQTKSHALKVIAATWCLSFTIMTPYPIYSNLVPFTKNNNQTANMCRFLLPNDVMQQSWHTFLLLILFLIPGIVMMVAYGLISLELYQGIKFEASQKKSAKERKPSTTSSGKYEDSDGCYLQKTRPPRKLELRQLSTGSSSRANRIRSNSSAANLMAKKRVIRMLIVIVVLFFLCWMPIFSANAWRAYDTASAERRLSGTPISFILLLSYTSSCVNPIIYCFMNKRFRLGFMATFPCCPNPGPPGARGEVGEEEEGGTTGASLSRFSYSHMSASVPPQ
serotonin receptor 5HT-1A, sequence (P08908 whole entry): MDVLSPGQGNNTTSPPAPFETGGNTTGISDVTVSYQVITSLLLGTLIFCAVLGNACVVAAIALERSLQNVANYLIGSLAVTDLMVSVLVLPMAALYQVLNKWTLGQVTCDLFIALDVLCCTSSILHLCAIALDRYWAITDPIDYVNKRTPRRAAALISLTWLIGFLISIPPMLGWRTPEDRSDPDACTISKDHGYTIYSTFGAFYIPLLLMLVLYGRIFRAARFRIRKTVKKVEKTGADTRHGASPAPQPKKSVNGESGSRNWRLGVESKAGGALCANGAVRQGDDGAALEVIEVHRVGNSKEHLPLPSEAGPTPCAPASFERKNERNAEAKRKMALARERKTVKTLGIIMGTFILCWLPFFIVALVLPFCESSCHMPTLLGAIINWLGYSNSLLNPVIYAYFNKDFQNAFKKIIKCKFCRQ
adenosine receptor 3 (A3), sequence (P0DMS8 whole entry): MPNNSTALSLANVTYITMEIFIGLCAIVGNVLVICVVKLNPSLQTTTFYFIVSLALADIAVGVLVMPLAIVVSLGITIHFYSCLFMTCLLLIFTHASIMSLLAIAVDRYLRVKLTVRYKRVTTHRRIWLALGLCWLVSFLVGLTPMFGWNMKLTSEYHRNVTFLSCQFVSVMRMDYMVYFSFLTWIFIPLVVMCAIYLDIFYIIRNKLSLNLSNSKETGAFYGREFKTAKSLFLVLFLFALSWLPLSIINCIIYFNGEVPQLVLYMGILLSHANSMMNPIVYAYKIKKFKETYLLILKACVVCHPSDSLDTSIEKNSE

COc1ccc2[nH]cc(CCNC(=O)CC3C(=O)N(CCc4ccc(Cl)cc4Cl)CC(=O)N3CCc3cccs3)c2c1 (centres unmarked) [LPT99, 2-(4-(2,4-dichlorophenethyl)-3,6-dioxo-1-(2-(thiophen-2-yl)ethyl)piperazin-2-yl)-N-(2-(5-methoxy-1H-indol-3-yl)ethyl)acetamide]
cellular proliferation of non-apoptotic cells [1]: delayed cellular proliferation | detection of LPT99 in administered cochleae ([2]; single IT 50, 100, or 200 μM in 5% hydroxypropyl cyclodextrin, 0.5 and 1 hour): detected in all administered cochleae | LPT99 concentrations in contralateral cochleae and plasma ([2]; single IT, all time points): BLLQ | Irritant Category [3]: nonirritant (0) | mortality, clinical observations, body weights, or Draize scores [3]: No test-article-related changes | Draize scores after the challenge dose ([3]; 24 or 48 hours): No Draize scores were >0 | PDII score ([3]; post-challenge): 0 | release of Cytc from mitochondria [4]: decreased release of Cytc from mitochondria | inhibition at 1 µM ([5]; 1 μM): < 50% | inhibition at 10 µM ([5]; 10 μM, read-out: affinity (inhibition) ViA): > 50% | inhibition at 1 µM ([6]; 1 μM): < 50% | inhibition at 10 µM ([6]; 10 μM, read-out: affinity (inhibition) A3): > 50% | in vitro inhibition, 41 of the tested targets [7]: < 50% | inhibition at 1 µM ([8]; 1 μM): < 50% | inhibition at 10 µM ([8]; 10 μM, read-out: affinity (inhibition) 5HT-7): > 50% | inhibition at 1 µM ([9]; 1 μM): < 50% | inhibition at 10 µM ([9]; 10 μM, read-out: affinity (inhibition) kOP): > 50% | inhibition at 1 µM ([10]; 1 μM): < 50% | inhibition at 10 µM ([10]; 10 μM, read-out: affinity (inhibition) mOP): > 50% | inhibition at 1 µM ([11]; 1 μM): < 50% | inhibition at 10 µM ([11]; 10 μM, read-out: affinity (inhibition) CCK1): > 50% | inhibition at 1 µM ([12]; 1 μM): < 50% | inhibition at 10 µM ([12]; 10 μM, read-out: affinity (inhibition) NK3): > 50% | inhibition C1-GABA-gated channel ([13]; 1 μM): < 50% | affinity (inhibition) C1-GABA-gated channel ([13]; 10 μM): > 50% | inhibition at 1 µM ([14]; 1 μM): < 50% | inhibition at 10 µM ([14]; 10 μM, read-out: affinity (inhibition) NK2): > 50% | inhibition at 1 µM ([15]; 1 μM): < 50% | inhibition at 10 µM ([15]; 10 μM, read-out: affinity (inhibition) 5HT-1A): > 50% | inhibition Na+channel site 2 ([16]; 1 μM): < 50% | affinity (inhibition) Na+channel site 2 ([16]; 10 μM): > 50% | inhibition at 1 µM ([17]; 1 μM): < 50% | inhibition at 10 µM ([17]; 10 μM, read-out: affinity (inhibition) 5HT-2A): > 50% | inhibition at 1 µM ([18]; 1 μM): < 50% | inhibition at 10 µM ([18]; 10 μM, read-out: affinity (inhibition) 5HT-2B): > 50% | inhibition at 0.1 µM ([19]; 0.1 μM): 6% | inhibition at 1 µM ([19]; 1 μM): 53% | inhibition at 10 µM ([19]; 10 μM, read-out: affinity (inhibition) MT1): > 50% | cytotoxicity in the presence or absence of ultraviolet-visible irradiation [20]: not cytotoxic | phototoxicity [20]: not be phototoxic | genetic toxicity (Ames test) [21]: no evidence of genetic toxicity
